This is an account of results in patent publication US20120208853A1, “PEST CONTROL COMPOSITION” (priority 2009, published 2012).

One test has as its system Plutella xylostella. The test can be described thus: Pesticidal effect on Plutella xylostella by bait crop immersion treatment. The format is in vivo. As to conditions: 48 h, 0.8 ppm alone (Comparative Example 4-2), third-instar larvae, 2 days after, 25° C. The procedure:
Test Example 1: Pesticidal Effect on Plutella xylostella by Bait Crop Immersion Treatment
To 10 mg of the compound (1) was added 0.2 ml of acetone containing 5% of Tween 20 (product name: SOLGEN (registered trademark) TW-20, manufactured by Dai-ichi Kogyo Seiyaku Co., Ltd.) to cause dissolution, and the solution was diluted with a 5,000-fold diluted solution of a spreading agent (product name: Dine (registered trademark), manufactured by Sumitomo Chemical Garden Products Inc.) to prepare a diluted liquid of the compound (1). […] The cup was stored in a constant temperature breeding room (25° C.), and the number of dead larvae was counted 2 days after, and the mortality was determined by the following equation [1]. […]
(§1) To 10 mg of the compound (13) was added 0.2 ml of acetone containing 5% of Tween 20 (product name: SOLGEN (registered trademark) TW-20, manufactured by Dai-ichi Kogyo Seiyaku Co., Ltd.) to cause dissolution, and the solution was diluted with a 5,000-fold diluted solution of a spreading agent (product name: Dine (registered trademark), manufactured by Sumitomo Chemical Garden Products Inc.) to prepare a diluted liquid of the compound (13). […] The cup was stored in a constant temperature breeding room (25° C.), and the number of dead larvae was counted 2 days after, and the mortality was determined by the above equation [1].

A further test has as its system Spodoptera litura. The test can be described thus: Pesticidal effect on Spodoptera litura by bait crop immersion treatment. Type of test: in vivo. The settings on record: 48 h, fourth-instar larvae, 2 days after, 25° C. On the procedure:
Mortality (%)=(dead larvae number/tested larvae number)×100 Equation [1]
Test Example 3: Pesticidal Effect on Spodoptera litura by Bait Crop Immersion Treatment
as §1, with “(13) or (15)” for “(13)”, “compound. A commercially available pyriproxyfen emulsifiable concentrate manufactured by Sumitomo Chemical Co., Ltd. under the product name of Lano (registered trademark) emulsifiable concentrate was diluted with a 5,000-fold diluted solution of a spreading agent (product name: Dine (registered trademark), manufactured by Sumitomo Chemical Garden Products Inc.) to prepare a diluted liquid of pyriproxyfen. These diluted liquids were mixed to prepare a test solution of prescribed concentration.” for “compound (13).”

Each structure is given as a SMILES string.

Broadly, the mortality is the share of the test organisms that died. Low readings indicate a weak lethal effect, high ones a strong lethal effect. In turn, `CC(COc1ccc(Oc2ccccc2)cc1)Oc1ccccn1` (racemic) [pyriproxyfen, 4-phenoxyphenyl (RS)-2-(2-pyridyloxy)propyl ether] displayed a mortality at 0.8 ppm in the test on Plutella xylostella of 40%. Besides, the mortality at 0.2 ppm in the test on Spodoptera litura (0.2 ppm alone (Comparative Examples 5-2, 7-2)) amounted to 30%. The mortality at 3.13 ppm with Spodoptera litura (3.13 ppm alone (Comparative Example 6-2)) was 50%.
